# Experimental data reported in ChEMBL document CHEMBL5608255, “Inhibitors of the Cyclic GMP-AMP Synthase (cGAS) as Potential Treatment for Autoimmune and Inflammatory Diseases” (ACS Med Chem Lett, 2024).
# Tests used:
# Cyclic GMP-AMP synthase [1] = molecular target: T1, Cyclic GMP-AMP synthase (Homo sapiens, UniProt Q8N884); test: Inhibition of cGAS in human THP-1 cells expressed in baculovirus infected insect cells incubated for 18 hrs by Lucia luciferase reporter assay
# Cyclic GMP-AMP synthase [2] = molecular target: T1, Cyclic GMP-AMP synthase; test: Inhibition of cGAS in dsDNA stimulated human Whole blood cell by measuring IFNalpha-2a production incubated for 60 mins followed by addition of double stranded DNA measured after 1350 mins by microplate reader assay; type: tissue-based
# Cyclic GMP-AMP synthase [3] = molecular target: T1, Cyclic GMP-AMP synthase; test: Ratio of IC50 for inhibition of cGAS in human THP-1 cells using cGAMP as substrate to IC50 for inhibition of cGAS in human THP-1 cells expressed in baculovirus infected insect cells
# Cyclic GMP-AMP synthase [4] = molecular target: T1, Cyclic GMP-AMP synthase; test: Inhibition of N-terminal 6His-SUMO tagged human cGAS (1 to 522 residues) extracted from Escherichia coli BL21(DE3)pLysS cells using GTP/ATP as substrate by measuring cGAMP production incubated for 90 mins in presence of 45 base pair DNA by mass spectrometric analysis
# T1 sequence (Q8N884 whole entry): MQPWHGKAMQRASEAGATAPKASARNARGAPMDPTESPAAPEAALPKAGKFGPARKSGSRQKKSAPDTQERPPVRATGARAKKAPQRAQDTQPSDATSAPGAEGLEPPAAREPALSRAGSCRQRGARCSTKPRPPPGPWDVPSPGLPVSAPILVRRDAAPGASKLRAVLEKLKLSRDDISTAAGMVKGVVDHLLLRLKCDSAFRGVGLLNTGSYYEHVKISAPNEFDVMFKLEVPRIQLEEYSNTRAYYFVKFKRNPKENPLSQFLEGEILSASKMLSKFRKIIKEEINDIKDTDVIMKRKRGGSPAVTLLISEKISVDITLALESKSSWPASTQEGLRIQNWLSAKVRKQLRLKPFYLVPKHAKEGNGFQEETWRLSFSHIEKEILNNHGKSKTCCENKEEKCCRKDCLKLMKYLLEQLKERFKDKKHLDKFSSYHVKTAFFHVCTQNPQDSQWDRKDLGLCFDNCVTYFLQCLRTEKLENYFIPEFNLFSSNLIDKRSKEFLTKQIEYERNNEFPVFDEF
Structure (SMILES),IC50 (Cyclic GMP-AMP synthase [1]),IC50 (Cyclic GMP-AMP synthase [2]),Ratio IC50 (Cyclic GMP-AMP synthase [3]),IC50 (Cyclic GMP-AMP synthase [4])
C[C@@H]1CN2CC[C@H]1n1c(nc3ccccc31)O[C@H]1C[C@@H](C(=O)O)N(C1)c1nc(nc3c1oc1ccccc13)CCCCCOC2=O,180 nM,439 nM,45,
CC(=O)[C@@H]1C[C@H]2CN1c1nc(nc3c1oc1ccccc13)CCOCCCC(=O)N1CC[C@@H]([C@@H](C)C1)n1c(nc3cc(Cl)ccc31)O2,2.8 nM,5 nM,> 3560,2.8 nM
C[C@@H]1CN2CC[C@H]1n1c(nc3cc(Cl)ccc31)O[C@H]1C[C@@H](C(=O)O)N(C1)c1nc(nc3c1oc1ccccc13)CCOCCCC2=O,39 nM,87 nM,> 253,
C[C@H]1CN2CC[C@H]1n1c(nc3ccccc31)O[C@H]1C[C@@H](C(=O)O)N(C1)c1nc(nc3c1oc1ccccc13)C(F)(F)COCCCCC2=O,0.44 nM,1 nM,32100,2.1 nM
C[C@H]1CN2CC[C@@H]1n1c(nc3ccccc31)O[C@H]1C[C@@H](C(=O)O)N(C1)c1nc(nc3c1oc1ccccc13)C(F)(F)CCCCC(F)(F)C2=O,13 nM,8 nM,519,
C[C@H]1CN2CC[C@@H]1n1c(nc3cc(Cl)ccc31)O[C@H]1C[C@@H](C(=O)O)N(C1)c1nc(nc3c1oc1ccccc13)C(F)(F)OCCCCC2=O,3.1 nM,3 nM,> 2220,
C[C@H]1CN2CC[C@@H]1n1c(nc3ccccc31)O[C@H]1C[C@@H](C(=O)O)N(C1)c1nc(nc3c1oc1ccccc13)CCCCCN(C)C2=O,500 nM,186 nM,15,
C[C@H]1CN2CC[C@@H]1n1c(nc3cc(Cl)ccc31)O[C@H]1C[C@@H](C(=O)O)N(C1)c1nc(nc3c1oc1cc(Cl)ccc13)CCOCCCC2=O,2.4 nM,17 nM,3930,
Cc1cccc2c1nc1n2[C@@H]2CCN(C[C@H]2C)C(=O)CCCCCC(F)(F)c2nc(c3oc4ccccc4c3n2)N2C[C@H](C[C@H]2C(=O)O)O1,180 nM,1580 nM,33,
C[C@H]1CN2CC[C@@H]1n1c(nc3ccccc31)O[C@H]1C[C@@H](C(=O)O)N(C1)c1nc(nc3c1oc1cc(Cl)ccc13)C(F)(F)CCCOCC2=O,1.5 nM,4 nM,> 6580,
